Measured values: the supplement of paper PMC10307832

Key:
Assay in all cases: relative viability (nuclei count vs DMSO), 5 days (fraction); higher = more cells survive
EMC-BAC-2 = test system: EMC-BAC-2
Method in brief: (§1)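 After 5 days of treatment, lung cancer cells in 1536-well plates were fixed and stained in a single step (final 0.05% Triton X-100, 1% formaldehyde, 1 ug/ml Hoechst) and their nuclei counted on 4× images. Treatment had been applied by pin tool the day after seeding as one drug alone or as a fixed anchor-drug dose with five library-drug doses (not always all listed) in √10 steps. Relative viability is the nuclei count of treated wells divided by that of vehicle wells, and values are medians of duplicate plates.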

EPLC-272H = test system: EPLC-272H
Method in brief: as §1

H3255 = test system: H3255
Method in brief: as §1

HOP-62 = test system: HOP-62
Method in brief: as §1

LCLC-97TM1 = test system: LCLC-97TM1
Method in brief: as §1

LXF-289 = test system: LXF-289
Method in brief: as §1

NCI-H1563 = test system: NCI-H1563
Method in brief: as §1

NCI-H1734 = test system: NCI-H1734
Method in brief: as §1

NCI-H1915 = test system: NCI-H1915
Method in brief: as §1

NCI-H1993 = test system: NCI-H1993
Method in brief: as §1

NCI-H2009 = test system: NCI-H2009
Method in brief: as §1

NCI-H2023 = test system: NCI-H2023
Method in brief: as §1

NCI-H2085 = test system: NCI-H2085
Method in brief: as §1

NCI-H2126 = test system: NCI-H2126
Method in brief: as §1

NCI-H2347 = test system: NCI-H2347
Method in brief: as §1

NCI-H322M = test system: NCI-H322M
Method in brief: as §1

NCI-H647 = test system: NCI-H647
Method in brief: as §1

NCI-H661 = test system: NCI-H661
Method in brief: as §1

NCI-H727 = test system: NCI-H727
Method in brief: as §1

PC-14 = test system: PC-14
Method in brief: as §1

SK-LU-1 = test system: SK-LU-1
Method in brief: as §1

SW 1573 = test system: SW 1573
Method in brief: as §1

O=c1cc(N2CCOCC2)oc2c(-c3cccc4c3sc3ccccc34)cccc12 + C[C@@H](Oc1cc(-c2cnn(C3CCNCC3)c2)cnc1N)c1c(Cl)ccc(F)c1Cl [Crizotinib] (partner 1 µM)
relative viability (EMC-BAC-2; first compound 0.01 µM): 0.787 | relative viability (EMC-BAC-2; first compound 0.03162 µM): 0.788 | relative viability (EMC-BAC-2; first compound 0.1 µM): 0.847 | relative viability (EMC-BAC-2; first compound 0.3162 µM): 0.77 | relative viability (EMC-BAC-2; first compound 1 µM): 0.735 | relative viability (EPLC-272H; first compound 0.01 µM): 0.909 | relative viability (EPLC-272H; first compound 0.03162 µM): 1.07 | relative viability (EPLC-272H; first compound 0.3162 µM): 0.937 | relative viability (EPLC-272H; first compound 1 µM): 0.896 | relative viability (H3255; first compound 0.01 µM): 0.871 | relative viability (H3255; first compound 0.03162 µM): 1.05 | relative viability (H3255; first compound 0.1 µM): 0.971 | relative viability (H3255; first compound 0.3162 µM): 0.926 | relative viability (H3255; first compound 1 µM): 0.769 | relative viability (HOP-62; first compound 0.01 µM): 1.06 | relative viability (HOP-62; first compound 0.03162 µM): 0.931 | relative viability (HOP-62; first compound 0.1 µM): 0.931 | relative viability (HOP-62; first compound 0.3162 µM): 0.945 | relative viability (HOP-62; first compound 1 µM): 1.04 | relative viability (LCLC-97TM1; first compound 0.01 µM): 0.444 | relative viability (LCLC-97TM1; first compound 0.03162 µM): 0.339 | relative viability (LCLC-97TM1; first compound 0.3162 µM): 0.281 | relative viability (LCLC-97TM1; first compound 1 µM): 0.39 | relative viability (LXF-289; first compound 0.01 µM): 0.814 | relative viability (LXF-289; first compound 0.03162 µM): 0.806 | relative viability (LXF-289; first compound 0.1 µM): 0.794 | relative viability (LXF-289; first compound 0.3162 µM): 0.789 | relative viability (LXF-289; first compound 1 µM): 0.755 | relative viability (NCI-H1563; first compound 0.01 µM): 0.809 | relative viability (NCI-H1563; first compound 0.03162 µM): 0.795 | relative viability (NCI-H1563; first compound 0.1 µM): 0.848 | relative viability (NCI-H1563; first compound 0.3162 µM): 0.711 | relative viability (NCI-H1563; first compound 1 µM): 0.82 | relative viability (NCI-H1734; first compound 0.01 µM): 0.766 | relative viability (NCI-H1734; first compound 0.03162 µM): 0.678 | relative viability (NCI-H1734; first compound 0.1 µM): 0.699 | relative viability (NCI-H1734; first compound 0.3162 µM): 0.61 | relative viability (NCI-H1734; first compound 1 µM): 0.642 | relative viability (NCI-H1915; first compound 0.01 µM): 0.875 | relative viability (NCI-H1915; first compound 0.03162 µM): 0.879 | relative viability (NCI-H1915; first compound 0.1 µM): 0.939 | relative viability (NCI-H1915; first compound 0.3162 µM): 0.876 | relative viability (NCI-H1915; first compound 1 µM): 0.933 | relative viability (NCI-H1993; first compound 0.01 µM): 0.858 | relative viability (NCI-H1993; first compound 0.03162 µM): 0.93 | relative viability (NCI-H1993; first compound 0.1 µM): 0.928 | relative viability (NCI-H1993; first compound 0.3162 µM): 0.862 | relative viability (NCI-H1993; first compound 1 µM): 0.943 | relative viability (NCI-H2009; first compound 0.01 µM): 1.03 | relative viability (NCI-H2009; first compound 0.03162 µM): 0.921 | relative viability (NCI-H2009; first compound 0.1 µM): 1.02 | relative viability (NCI-H2009; first compound 0.3162 µM): 0.995 | relative viability (NCI-H2009; first compound 1 µM): 0.935 | relative viability (NCI-H2023; first compound 0.01 µM): 0.574 | relative viability (NCI-H2023; first compound 0.03162 µM): 0.589 | relative viability (NCI-H2023; first compound 0.1 µM): 0.663 | relative viability (NCI-H2023; first compound 0.3162 µM): 0.616 | relative viability (NCI-H2023; first compound 1 µM): 0.586 | relative viability (NCI-H2085; first compound 0.01 µM): 0.941 | relative viability (NCI-H2085; first compound 0.03162 µM): 0.89 | relative viability (NCI-H2085; first compound 0.1 µM): 0.879 | relative viability (NCI-H2085; first compound 0.3162 µM): 0.841 | relative viability (NCI-H2085; first compound 1 µM): 0.889 | relative viability (NCI-H2126; first compound 0.01 µM): 1.04 | relative viability (NCI-H2126; first compound 0.03162 µM): 1.01 | relative viability (NCI-H2126; first compound 0.1 µM): 1.01 | relative viability (NCI-H2126; first compound 0.3162 µM): 0.944 | relative viability (NCI-H2126; first compound 1 µM): 0.955 | relative viability (NCI-H2347; first compound 0.01 µM): 0.805 | relative viability (NCI-H2347; first compound 0.03162 µM): 0.661 | relative viability (NCI-H2347; first compound 0.1 µM): 0.739 | relative viability (NCI-H2347; first compound 0.3162 µM): 0.584 | relative viability (NCI-H2347; first compound 1 µM): 0.76 | relative viability (NCI-H322M; first compound 0.01 µM): 0.94 | relative viability (NCI-H322M; first compound 0.03162 µM): 0.842 | relative viability (NCI-H322M; first compound 0.3162 µM): 0.943 | relative viability (NCI-H322M; first compound 1 µM): 0.84 | relative viability (NCI-H647; first compound 0.01 µM): 1.12 | relative viability (NCI-H647; first compound 0.03162 µM): 1.23 | relative viability (NCI-H647; first compound 0.1 µM): 1.08 | relative viability (NCI-H647; first compound 0.3162 µM): 0.949 | relative viability (NCI-H647; first compound 1 µM): 0.939 | relative viability (NCI-H661; first compound 0.01 µM): 1.06 | relative viability (NCI-H661; first compound 0.03162 µM): 0.983 | relative viability (NCI-H661; first compound 0.1 µM): 0.927 | relative viability (NCI-H661; first compound 0.3162 µM): 0.817 | relative viability (NCI-H661; first compound 1 µM): 0.92 | relative viability (NCI-H727; first compound 0.01 µM): 0.887 | relative viability (NCI-H727; first compound 0.03162 µM): 0.893 | relative viability (NCI-H727; first compound 0.1 µM): 0.751 | relative viability (NCI-H727; first compound 0.3162 µM): 0.734 | relative viability (NCI-H727; first compound 1 µM): 0.932 | relative viability (PC-14; first compound 0.01 µM): 0.906 | relative viability (PC-14; first compound 0.03162 µM): 0.82 | relative viability (PC-14; first compound 0.1 µM): 0.85 | relative viability (PC-14; first compound 0.3162 µM): 0.843 | relative viability (PC-14; first compound 1 µM): 0.795 | relative viability (SK-LU-1; first compound 0.03162 µM): 0.897 | relative viability (SK-LU-1; first compound 0.1 µM): 0.828 | relative viability (SK-LU-1; first compound 0.3162 µM): 0.993 | relative viability (SK-LU-1; first compound 1 µM): 0.877 | relative viability (SW 1573; first compound 0.01 µM): 0.787 | relative viability (SW 1573; first compound 0.03162 µM): 0.805 | relative viability (SW 1573; first compound 0.1 µM): 0.808 | relative viability (SW 1573; first compound 0.3162 µM): 0.74 | relative viability (SW 1573; first compound 1 µM): 0.752
